Experimental data taken from patent US9113629B2, “4-amino-6-(4-substituted-phenyl)-picolinates and 6-amino-2-(4-substituted-phenyl)-pyrimidine-4-carboxylates and their use as herbicides” (DOW AGROSCIENCES LLC, priority 2013, dated 2015).
Like-named read-outs stand apart in the source and are kept apart here.

Tests used:
Format in all cases: in vivo
[1] = system: SETFA: giant foxtail (Setaria faberi); assay: Pre-emergent Test I herbicidal activity; settings: pre-emergence, 336 h, read-out: Visual Growth Reduction (%) 14 Days After Application, SETFA; for pest or weed control at 4000 g/ha: 4 kg ai/ha
Method: (§1) Pre-emergent Test I Seeds of test species were planted into round plastic pots (5-inch diameter) containing sandy loam soil. After planting, all pots were sub-irrigated 16 h prior to compound application. Compounds were dissolved in a 97:3 v/v (volume/volume) mixture of acetone and dimethyl sulfoxide (DMSO) and diluted to the appropriate concentration in a final application solution containing water, acetone, isopropanol, DMSO and Agri-dex (crop oil concentrate) in a 59:23:15:1.0:1.5 v/v ratio and 0.02% w/v (weight/volume) of Triton X-155 to obtain the spray solution containing the highest application rate. Additional application rates were obtained by serial dilution of the high rate solution with the above application solution. Formulated compound (2.7 mL) was applied pipetted evenly over the soil surface followed by incorporation with water (15 mL). Following treatment, pots were returned to the greenhouse for the duration of the experiment. The greenhouse was programmed for an approximate 15 h photoperiod which was maintained at about 23-29° C. during the day and 22-28° C. during the night. Nutrients and water were added on a regular basis through surface irrigation and supplemental lighting was provided with overhead metal halide 1000-Watt lamps as necessary. Herbicidal effect ratings were obtained 14 days after treatment. All evaluations were made relative to appropriate controls on a scale of 0 to 100 where 0 represents no herbicidal effect and 100 represents plant death or lack of emergence from the soil.

[2] = system: AVEFA: wild oats (Avena fatua); assay: Pre-emergent Test I herbicidal activity; settings: pre-emergence, 336 h, read-out: Visual Growth Reduction (%) 14 Days After Application, AVEFA; for pest or weed control at 4000 g/ha: 4 kg ai/ha
Method: as §1

[3] = system: ECHCG: barnyardgrass (Echinochloa crus-galli); assay: Pre-emergent Test I herbicidal activity; settings: pre-emergence, 336 h, read-out: Visual Growth Reduction (%) 14 Days After Application, ECHCG; for pest or weed control at 4000 g/ha: 4 kg ai/ha
Method: as §1

[4] = system: HELAN: sunflower (Helianthus annuus); assay: Pre-emergent Test I herbicidal activity; settings: pre-emergence, 336 h, read-out: Visual Growth Reduction (%) 14 Days After Application, HELAN; for pest or weed control at 4000 g/ha: 4 kg ai/ha
Method: as §1

[5] = system: AMARE: redroot pigwseed (Amaranthus retroflexus); assay: Pre-emergent Test I herbicidal activity; settings: pre-emergence, 336 h, read-out: Visual Growth Reduction (%) 14 Days After Application, AMARE; for pest or weed control at 4000 g/ha: 4 kg ai/ha
Method: as §1

[6] = system: IPOHE: ivyleaf morningglory (Ipomoea hederecea); assay: Pre-emergent Test I herbicidal activity; settings: pre-emergence, 336 h, read-out: Visual Growth Reduction (%) 14 Days After Application, IPOHE; for pest or weed control at 4000 g/ha: 4 kg ai/ha
Method: as §1

LAMSS = assay: Post-emergent Test III, herbicidal activity in wheat and barley; settings: for pest or weed control at 35 g/ha / pest or weed control at 70 g/ha / pest or weed control at 140 g/ha: post-emergence, 504 h, read-out: Visual Growth Reduction (%) 21 Days After Application LAMSS; for pest or weed control at 35 g/ha: 35 g ai/ha; for pest or weed control at 70 g/ha: 70 g ai/ha; for pest or weed control at 140 g/ha: 140 g ai/ha; for GR50 LAMSS / GR80 LAMSS: probit analysis
Method in brief: (§2)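 GR20, GR50, GR80 and GR90 come from probit analysis of visual injury scores (0 = none, 100 = complete kill) taken 21 d after treatment. Foliar application was by track sprayer delivering 187 L/ha at five rates, from high down to 1/16×, onto greenhouse plants at the 2–3 leaf stage, with solvent-blank controls.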

[7] = system: ALOMY: black-grass (Alopecurus myosuroides); assay: as above; settings: for pest or weed control at 35 g/ha: 35 g ai/ha; for pest or weed control at 70 g/ha: 70 g ai/ha; for GR50 ALOMY / GR80 ALOMY: probit analysis, 21 days after application; for GR50 ALOMY: dose for growth reduction of 50 percent; for GR80 ALOMY: dose for growth reduction of 80 percent
Method in brief: as §2

[8] = system: VERPE: bird's-eye speedwell (veronica persica); assay: as above; settings: for pest or weed control at 35 g/ha / pest or weed control at 70 g/ha / pest or weed control at 140 g/ha: Veronica persica, post-emergence, 504 h, read-out: Visual Growth Reduction (%) 21 Days After Application VERPE; for pest or weed control at 35 g/ha: 35 g ai/ha; for pest or weed control at 70 g/ha: 70 g ai/ha; for pest or weed control at 140 g/ha: 140 g ai/ha; for GR50 VERPE / GR80 VERPE: probit analysis
Method in brief: as §2

[9] = dose for growth reduction of 50 percent, 21 days after application
[10] = dose for growth reduction of 80 percent, 21 days after application
[11] = Alopecurus myosuroides, post-emergence, 504 h, read-out: Visual Growth Reduction (%) 21 Days After Application ALOMY
[12] = Table 8, dose for 50 percent growth reduction, 21 d
[13] = Table 8, dose for 80 percent growth reduction, 21 d

## COC(=O)c1nc(-c2ccc(Br)cc2)c(F)c(N)c1Cl [Compound 138, Methyl 4-amino-6-(4-bromophenyl)-3-chloro-5-fluoropicolinate]
[1]
  pest or weed control at 4000 g/ha: 95 to 100%
[2]
  pest or weed control at 4000 g/ha: 95 to 100%
[3]
  pest or weed control at 4000 g/ha: 95 to 100%
[4]
  pest or weed control at 4000 g/ha: 95 to 100%
[5]
  pest or weed control at 4000 g/ha: 95 to 100%
[6]
  pest or weed control at 4000 g/ha: 95 to 100%
LAMSS
  pest or weed control at 35 g/ha: 95 to 100%
  pest or weed control at 70 g/ha: 95 to 100%
  pest or weed control at 140 g/ha: 95 to 100%
LAMSS; [9]
  GR50 LAMSS: 1 g ai/ha
LAMSS; [10]
  GR80 LAMSS: 1 g ai/ha
[7]; [11]
  pest or weed control at 35 g/ha: 75 to 84%
  pest or weed control at 70 g/ha: 85 to 94%
[7]; Alopecurus myosuroides, post-emergence, 504 h, 140 g ai/ha, read-out: Visual Growth Reduction (%) 21 Days After Application ALOMY
  pest or weed control at 140 g/ha: 95 to 100%
[7]
  GR50 ALOMY: 11 g ai/ha
  GR80 ALOMY: 30 g ai/ha
[8]
  pest or weed control at 35 g/ha: 60 to 74%
  pest or weed control at 70 g/ha: 85 to 94%
  pest or weed control at 140 g/ha: 85 to 94%
[8]; [9]
  GR50 VERPE: 15 g ai/ha
[8]; [10]
  GR80 VERPE: 49 g ai/ha

## COC(=O)c1nc(-c2ccc(C#N)c(F)c2)c(F)c(N)c1Cl [Compound 135, methyl 4-amino-3-chloro-6-(4-cyano-3-fluorophenyl)-5-fluoropicolinate]
[1]; 4.04 kg ai/ha
  pest or weed control at 4040 g/ha: 30 to 44%
[2]; 4.04 kg ai/ha
  pest or weed control at 4040 g/ha: 30 to 44%
[3]; 4.04 kg ai/ha
  pest or weed control at 4040 g/ha: 30 to 44%
[4]; 4.04 kg ai/ha
  pest or weed control at 4040 g/ha: 95 to 100%
[5]; 4.04 kg ai/ha
  pest or weed control at 4040 g/ha: 95 to 100%
[6]; 4.04 kg ai/ha
  pest or weed control at 4040 g/ha: 95 to 100%
LAMSS; [12]
  GR50 LAMSS: 1 g ai/ha
LAMSS; [13]
  GR80 LAMSS: 19 g ai/ha
LAMSS; Table 8, post-emergent, 21 d
  pest or weed control at 35 g/ha: 75 to 84%
  pest or weed control at 70 g/ha: 85 to 94%
  pest or weed control at 140 g/ha: 85 to 94%
[8]; [12]
  GR50 VERPE: 24 g ai/ha
[8]; [13]
  GR80 VERPE: 78 g ai/ha
[8]; Table 8, post-emergent, 21 d
  pest or weed control at 35 g/ha: 60 to 74%
  pest or weed control at 70 g/ha: 75 to 84%
  pest or weed control at 140 g/ha: 85 to 94%

## COC(=O)c1nc(-c2ccc(C#N)cc2F)cc(N)c1Cl [Compound 16]
[1]; 3.84 kg ai/ha
  pest or weed control at 3840 g/ha: 0 to 29%
[2]; 3.84 kg ai/ha
  pest or weed control at 3840 g/ha: 30 to 44%
[3]; 3.84 kg ai/ha
  pest or weed control at 3840 g/ha: 30 to 44%
[4]; 3.84 kg ai/ha
  pest or weed control at 3840 g/ha: 95 to 100%
[5]; 3.84 kg ai/ha
  pest or weed control at 3840 g/ha: 95 to 100%
[6]; 3.84 kg ai/ha
  pest or weed control at 3840 g/ha: 95 to 100%

## COC(=O)c1nc(-c2ccc(C(F)F)cc2)c(F)c(N)c1Cl [Compound 209]
[1]
  pest or weed control at 4000 g/ha: 95 to 100%
[2]
  pest or weed control at 4000 g/ha: 95 to 100%
[3]
  pest or weed control at 4000 g/ha: 95 to 100%
[4]
  pest or weed control at 4000 g/ha: 95 to 100%
[5]
  pest or weed control at 4000 g/ha: 95 to 100%
[6]
  pest or weed control at 4000 g/ha: 95 to 100%
LAMSS
  pest or weed control at 35 g/ha: 85 to 94%
  pest or weed control at 70 g/ha: 85 to 94%
LAMSS; [9]
  GR50 LAMSS: 7 g ai/ha
LAMSS; [10]
  GR80 LAMSS: 29 g ai/ha
[7]; [11]
  pest or weed control at 35 g/ha: 0 to 29%
  pest or weed control at 70 g/ha: 0 to 29%
[7]
  GR50 ALOMY: >140 g ai/ha
  GR80 ALOMY: >140 g ai/ha
